The text below walks through data of patent publication US20240109853A1 (Shanghai Yao Yuan Biotechnology Co., Ltd., priority 2020, published 2024).

One assay concerns the target ALPK1 (Homo sapiens (Human), UniProt Q96QP1). Put plainly: ALPK1 in vitro kinase assay (HTRF of TIFA phosphorylation). The assay is classed as biochemical. Background: TR-FRET usually uses a lanthanide donor and a delayed reading to cut background.
The target in another assay is hALPK1-V1092A (Homo sapiens (Human), UniProt Q96QP1, V1092A). Put plainly: cell-based.
hALPK1-V1092A, sequence (Q96QP1 whole entry V1092A): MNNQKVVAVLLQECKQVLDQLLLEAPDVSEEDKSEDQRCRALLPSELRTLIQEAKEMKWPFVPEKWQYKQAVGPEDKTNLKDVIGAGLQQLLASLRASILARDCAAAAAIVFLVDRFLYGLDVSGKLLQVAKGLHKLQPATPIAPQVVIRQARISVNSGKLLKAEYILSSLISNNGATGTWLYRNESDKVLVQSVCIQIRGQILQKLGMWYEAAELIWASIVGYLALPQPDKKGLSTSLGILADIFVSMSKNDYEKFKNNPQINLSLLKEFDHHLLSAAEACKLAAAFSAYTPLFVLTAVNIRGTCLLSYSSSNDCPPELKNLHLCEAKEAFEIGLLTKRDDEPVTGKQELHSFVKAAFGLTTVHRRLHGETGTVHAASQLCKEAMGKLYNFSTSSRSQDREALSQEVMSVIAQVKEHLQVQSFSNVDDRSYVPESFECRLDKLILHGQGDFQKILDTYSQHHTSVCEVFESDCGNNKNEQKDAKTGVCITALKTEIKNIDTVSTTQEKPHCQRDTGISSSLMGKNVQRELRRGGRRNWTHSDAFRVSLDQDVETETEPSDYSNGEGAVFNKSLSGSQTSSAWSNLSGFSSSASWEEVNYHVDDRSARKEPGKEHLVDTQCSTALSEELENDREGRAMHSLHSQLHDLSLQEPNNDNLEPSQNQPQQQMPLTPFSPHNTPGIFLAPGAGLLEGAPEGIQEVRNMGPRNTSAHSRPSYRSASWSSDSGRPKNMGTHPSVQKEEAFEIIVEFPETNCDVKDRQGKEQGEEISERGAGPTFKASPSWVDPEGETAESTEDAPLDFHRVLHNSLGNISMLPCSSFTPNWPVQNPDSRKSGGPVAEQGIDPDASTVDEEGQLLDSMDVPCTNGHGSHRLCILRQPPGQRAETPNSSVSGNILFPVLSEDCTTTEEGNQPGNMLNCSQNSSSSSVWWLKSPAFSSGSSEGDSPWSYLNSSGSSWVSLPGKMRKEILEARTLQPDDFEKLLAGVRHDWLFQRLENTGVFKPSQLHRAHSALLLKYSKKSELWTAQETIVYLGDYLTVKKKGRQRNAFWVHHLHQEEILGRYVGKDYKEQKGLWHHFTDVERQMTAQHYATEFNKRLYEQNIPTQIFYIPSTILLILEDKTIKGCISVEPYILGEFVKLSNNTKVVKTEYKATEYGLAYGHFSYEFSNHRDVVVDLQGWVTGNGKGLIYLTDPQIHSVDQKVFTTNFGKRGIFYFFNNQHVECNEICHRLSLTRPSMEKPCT
Assay [1] deals with ALPK1-dependent NFκB reporter gene activation in HEK293 cells stably expressing an NF-kB reporter (G9 cells). The experiment in a line: NFκB gene reporter alkaline phosphatase assay. It counts as cell-based. The settings on record: Homo sapiens, HEK293; read-out: NFkB assay IC50. The method in brief: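 HEK293 G9 cells carrying an NF-κB-driven alkaline phosphatase reporter, pretreated 30 min with serially diluted compound, then stimulated with D-glycero-D-manno-6-fluoro-heptose-1β-S-ADP. Reporter activity read with chromogenic pNPP substrate; IC50 from four-parameter logistic fit.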

SMILES strings stand for the structures. Like-named read-outs stand apart in the source and are kept apart here.

ALPK1, sequence (Q96QP1 whole entry): as the sequence (Q96QP1 whole entry V1092A) above, with A1092V counted along it
Protocol for hALPK1-V1092A: Accordingly, we used IL-8 secretion as an indicator of activated ALPK1 inhibition in cells expressing these mutations.
Transfection was performed according to manufacturer's protocols (Lipofectamine™ 3000, ThermoFisher). Transfected cells were selected, seeded onto 96-well plates and treated with serial dilutions of the test compounds for 6.5 hr. Following treatment, cell viability was determined using a luminescent cell viability assay (Cell Counting-Lite Assay or “CCL Assay” from Vazyme Biotech Co., Ltd.) and cell free supernatants were collected and analyzed for IL-8 protein by IL-8 ELISA as described above.
Fresh medium and compound were added at 18 hours. Cell viability and IL-8 secretion were determined 6 hours after the second addition of compound, using the CCL assay and IL-8 ELISA as described above.

A word on the IC50: it is the concentration that gives 50% inhibition. For the compound `C#C[C@](C)(c1ccc(F)cc1)c1csc(NC(=O)c2c(F)cc(N3CCNCC3)cc2F)n1` (stereo in doubt) [Example C034, 2,6-difluoro-N-(4-(2-(4-fluorophenyl)but-3-yn-2-yl)thiazol-2-yl)-4-(piperazin-1-yl)benzamide], the IC50 at ALPK1 (ALPK1 2 nM, TIFA substrate, ADP-Heptose activator, HTRF readout) is 40 nM; at hALPK1-V1092A, 277 nM.
With `COc1ccc(C(C)(C)c2csc(NC(=O)NCc3ccc(N4CCNCC4)c(OC(C)C)c3)n2)cc1` [Example A225, 1-(3-isopropoxy-4-(piperazin-1-yl)benzyl)-3-(4-(2-(4-methoxyphenyl)propan-2-yl)thiazol-2-yl)urea], the IC50 worked out at 108 nM at ALPK1 and 1050 nM in assay [1].
For the compound `C#CC(C)(c1ccc(Br)cc1)c1csc(NC(=O)N2CC(CO)C2)n1` (centres unmarked) [Example A165, N-(4-(2-(4-bromophenyl)but-3-yn-2-yl)thiazol-2-yl)-3-(hydroxymethyl)azetidine-1-carboxamide], the figures for the concentration for half-maximal inhibition (IC50) (at ALPK1; in assay [1]) were 138 nM and 730 nM, respectively.
Turning to `COc1ccc(C(C)(C)c2csc(NC(=O)NCC3CC(N)C3)n2)cc1` (centres unmarked) [Example A190, 1-((3-aminocyclobutyl)methyl)-3-(4-(2-(4-methoxyphenyl)propan-2-yl)thiazol-2-yl)urea], the IC50 on ALPK1 is 458 nM; in assay [1], 3020 nM.
The like results for `COc1ccc(C(C)(C)c2csc(NC(=O)NCc3ccc(CO)cc3)n2)cc1` [Example A140, 1-(4-(hydroxymethyl)benzyl)-3-(4-(2-(4-methoxyphenyl)propan-2-yl)thiazol-2-yl)urea] were, in that order, 131 nM and 5520 nM.
For `C#C[C@](C)(c1ccc(Br)cc1)c1csc(NC(=O)NCCO)n1` [Example A161, (R)-1-(4-(2-(4-bromophenyl)but-3-yn-2-yl)thiazol-2-yl)-3-(2-hydroxyethyl)urea], in that order: 68 nM and 550 nM.
For `CC(C)(c1ccc(Br)cc1)c1csc(NC(=O)NCCCS(N)(=O)=O)n1` [Example A132, 3-(3-(4-(2-(4-bromophenyl)propan-2-yl)thiazol-2-yl)ureido)propane-1-sulfonamide], in that order: 80 nM and 4560 nM.
In the case of `COc1ccc(C(C)(C)c2csc(NC(=O)NCc3cnc(NCCO)c(F)c3)n2)cc1` [Example A105, 1-((5-fluoro-6-((2-hydroxyethyl)amino)pyri-din-3-yl)methyl)-3-(4-(2-(4-methoxyphenyl)propan-2-yl)thiazol-2-yl)urea], the IC50 came to 144 nM at ALPK1 and 1020 nM in assay [1].
With `CC(C)(c1ccc(Br)cc1)c1csc(NC(=O)NCc2ccc(C(N)=O)cc2)n1` [Example A008, 4-((3-(4-(2-(4-bromophenyl)propan-2-yl)thiazol-2-yl)ureido)methyl)benz-mide], the IC50 came out at 8 nM against ALPK1 and 700 nM in assay [1].
In the case of `COc1ccc(C(C)(C)c2csc(NC(=O)NCc3cc(F)c(N4CCNCC4)c(F)c3)n2)cc1` [Example A040, 1-(3,5-difluoro-4-(piperazin-1-yl)benzyl)-3-(4-(2-(4-methoxyphenyl)propan-2-yl)thiazol-2-yl)urea], the IC50 against ALPK1 amounted to 45 nM; in assay [1] it was 500 nM.
Consider `COc1ccc(C(C)(C)c2csc(NC(=O)NCCCN3CCN(C)CC3)n2)cc1` [Example A142, 1-(4-(2-(4-methoxyphenyl)propan-2-yl)thiazol-2-yl)-3-(3-(4-methylpiperazin-1-yl)propyl)urea], for which the IC50 on ALPK1 was 180 nM; in assay [1] it was 1330 nM.
As to `CC(C)(c1ccc(Br)cc1)c1csc(NC(=O)NCc2ccc(N3CCC(N)C3)cc2)n1` (centres unmarked) [Example A032, 1-(4-(3-aminopyrrolidin-1-yl)benzyl)-3-(4-(2-(4-bromophenyl)propan-2-yl)thiazol-2-yl)urea], the IC50 came to 291 nM at ALPK1 and 580 nM in assay [1].
On to `COc1ccc(C(C)(C)c2csc(NC(=O)NCCCS(C)(=O)=O)n2)cc1` [Example A136, 1-(4-(2-(4-methoxyphenyl)propan-2-yl)thiazol-2-yl)-3-(3-(methylsulfonyl)propyl) urea], for which the IC50 against ALPK1 came out at 209 nM; in assay [1], 640 nM.
As to `C#C[C@](C)(c1ccc(Cl)cc1)c1csc(NC(=O)NC[C@H](O)CO)n1` [Example A302, 1-(4-(2-(4-chlorophenyl)but-3-yn-2-yl)thiazol-2-yl)-3-((S)-2,3-dihydroxypropyl)urea], the IC50 against ALPK1 is 417 nM; in assay [1] it was 2040 nM.
For `COc1ccc(C(C)(C)c2csc(NC(=O)NCc3ccc(C(=O)NC4CCN(C)CC4)nc3)n2)cc1` [Example A120, 5-((3-(4-(2-(4-methoxyphenyl)propan-2-yl)thiazol-2-yl)ureido)methyl)-N-(1-methylpiperidin-4-yl)picolinamide], the IC50 is 53 nM against ALPK1 and 990 nM in assay [1].
`COc1ccc(C(C)(C)c2csc(NC(=O)NCc3cnc(N4CCC(O)C4)nc3)n2)cc1` (centres unmarked) [Example A083, 1-((2-(3-hydroxypyrrolidin-1-yl)pyrimidin-5-yl)methyl)-3-(4-(2-(4-methoxyphenyl)propan-2-yl)thiazol-2-yl)urea]: the IC50 is 111 nM against ALPK1 and 680 nM in assay [1].
As to `COc1ccc(C(C)(C)c2csc(NC(=O)NCCCN3CCNC(C)C3)n2)cc1` (centres unmarked) [Example A228, 1-(4-(2-(4-methoxyphenyl)propan-2-yl)thiazol-2-yl)-3-(3-(3-methylpiperazin-1-yl)propyl)urea], the IC50 came out at 100 nM at ALPK1 and 3860 nM in assay [1].
With `C#C[C@@](C)(c1ccc(F)cc1)c1csc(NC(=O)NCCO)n1` [Example A283, 1-(4-(2-(4-fluorophenyl)but-3-yn-2-yl)thiazol-2-yl)-3-(2-hydroxyethyl)urea], the figures for the IC50 (against ALPK1; in assay [1]) were 550 nM and 1700 nM, respectively.
In the case of `CC(NC(=O)Nc1nc(C(C)(C)c2ccc(Br)cc2)cs1)c1ccc(CN2CCN(C)CC2)cc1` (centres unmarked) [Example A118, 1-(4-(2-(4-bromophenyl)propan-2-yl)thiazol-2-yl)-3-(1-(4-((4-methylpiperazin-1-yl)methyl)phenyl)ethyl) urea], the IC50 turned out to be 227 nM against ALPK1 and 4380 nM in assay [1].
As for `COc1ccc(C(C)(C)c2csc(NC(=O)NCc3cc(F)c(N4CC5CC(C4)N5)c(F)c3)n2)cc1` [Example A232], the figures for the IC50 (at ALPK1; in assay [1]) were 88 nM and 590 nM, respectively.
As for `COc1ccc(C(C)(C)c2csc(NC(=O)NCc3ccc(N4CC5CC4CN5)c(C(N)=O)c3)n2)cc1` (centres unmarked) [Example A064, 2-(2,5-diazabicyclo[2.2.1]heptan-2-yl)-5-((3-(4-(2-(4-methoxyphenyl)propan-2-yl)thiazol-2-yl)ureido)methyl)benza-mide], the IC50 was found to be 41 nM on ALPK1 and 19700 nM in assay [1].
For `CC(C)(c1ccc(Br)cc1)c1csc(NC(=O)NCCCO)n1` [Example A126, 1-(4-(2-(4-bromophenyl)propan-2-yl)thiazol-2-yl)-3-(3-hydroxypropyl)urea], the IC50 against ALPK1 came to 88 nM; in assay [1], 2960 nM.
For `COc1ccc(C(C)(C)c2csc(NC(=O)NCCCN3CCC(O)C3)n2)cc1` (centres unmarked) [Example A135, 1-(3-(3-hydroxypyrrolidin-1-yl)propyl)-3-(4-(2-(4-methoxyphenyl)propan-2-yl)thiazol-2-yl)urea], the results for the IC50 (against ALPK1; in assay [1]) were 112 nM and 1240 nM, respectively.
The like results for `COc1ccc(C(C)(C)c2csc(NC(=O)NCc3ccc(C(=O)N4CCC(N)C4)nc3)n2)cc1` (centres unmarked) [Example A217, 1-((6-(3-aminopyrrolidine-1-carbonyl)pyridin-3-yl)methyl)-3-(4-(2-(4-methoxyphenyl)propan-2-yl)thiazol-2-yl)urea] were, in that order, 56 nM and 32600 nM.
The like results for `COc1ccc(C(C)(C)c2csc(NC(=O)NCCS(N)(=O)=O)n2)cc1` [Example A137, 2-(3-(4-(2-(4-methoxyphenyl)propan-2-yl)thiazol-2-yl)ureido)ethanesulfona-mide] were, in that order, 42 nM and 1960 nM.
For the compound `C#CC(C)(c1ccc(Cl)cc1)c1csc(NC(=O)NCCO)n1` (centres unmarked) [Example A174, 1-(4-(2-(4-chlorophenyl)but-3-yn-2-yl)thiazol-2-yl)-3-(2-hydroxyethyl)urea], the IC50 was 34 nM at ALPK1 and 310 nM in assay [1].
With `CC(C)(c1ccc(F)cc1)c1csc(NC(=O)NCc2cnc(N3CCNCC3)nc2)n1` [Example A085, 1-(4-(2-(4-fluorophenyl)propan-2-yl)thiazol-2-yl)-3-((2-(piperazin-1-yl)pyrimidin-5-yl)methyl)urea], the values for the IC50 (against ALPK1; in assay [1]) were 85 nM and 490 nM, respectively.
Consider `COc1ccc(C(C)(C)c2csc(NC(=O)NCc3ccc(NCCN)cc3)n2)cc1` [Example A183, 1-(4-((2-aminoethyl)amino)ben-yzl)-3-(4-(2-(4-methoxyphenyl)propan-2-yl)thiazol-2-yl)urea], for which the IC50 at ALPK1 came to 52 nM; in assay [1], 2310 nM.
As for `COc1ccc(C(C)(C)c2csc(NC(=O)NCc3cnc(N4CCNC(=O)C4)c(F)c3)n2)cc1` [Example A121, 1-((5-fluoro-6-(3-oxopiperaizn-1-yl)pyridin-3-yl)methyl)-3-(4-(2-(4-methoxyphenyl)propan-2-yl)thiazol-2-yl)urea], the half-maximal inhibitory concentration (IC50) is 209 nM on ALPK1 and 2020 nM in assay [1].
The like results for `COc1ccc(C(C)(C)c2csc(NC(=O)NC3CCCC(O)C3)n2)cc1` (centres unmarked) [Example A123, 1-(3-hydroxycyclohexyl)-3-(4-(2-(4-methoxyphenyl)propan-2-yl)thiazol-2-yl)urea] were, in that order, 354 nM and 2400 nM.
Consider `C#CC(C)(c1ccc(Cl)cc1)c1csc(NC(=O)NCCC#N)n1` (centres unmarked) [Example A024, 1-(4-(2-(4-chlorophenyl)but-3-yn-2-yl)thiazol-2-yl)-3-(2-cyanoethyl)urea], for which the IC50 on ALPK1 was 13 nM; in assay [1], 1250 nM.
